Tests used:
[1] = target: T1, Sodium channel alpha subunits; brain (Types I, II, III) (Rattus norvegicus) (UniProt P04775+P04774+P08104); test: Displacement of [3H]BTX-B from rat cerebral cortex voltage-gated sodium channel, 0.5 hr after 500 uM; format: tissue-based
Mus musculus [2] = test: Anticonvulsant activity of the compound, 0.5 hr after administration in maximal electroshock mice model; format: functional
Mus musculus [3] = test: Anticonvulsant activity of the compound, 0.5 hr after administration of compound in mice subjected to subcutaneous metrazole challenge (85 mg/kg); format: functional; settings: sc
[4] = Anticonvulsant activity of the compound,0.5 hr after administration in mice subjected to rotarod toxicity test; format: organism-based; settings: mouse, in vivo
Mus musculus [5] = species: Mus musculus; test: Anticonvulsant activity when mice were subjected to maximal electroshock; format: functional
[6] = target: T1, Sodium channel alpha subunits; brain (Types I, II, III) (Rattus norvegicus); test: Displacement of [3H]BTX-B from rat cerebral cortex voltage-gated sodium channel, 0.25 hr after 160 uM; format: tissue-based
[7] = target: T1, Sodium channel alpha subunits; brain (Types I, II, III) (Rattus norvegicus); test: Displacement of [3H]BTX-B from rat cerebral cortex voltage-gated sodium channel, 0.5 hr after 190 uM; format: tissue-based
[8] = Anticonvulsant activity of the compound,0.25 h after administration in mice subjected to rotarod toxicity test; format: organism-based; settings: mouse, in vivo

T1 sequence (P04775 whole entry, looked up, other chains not shown): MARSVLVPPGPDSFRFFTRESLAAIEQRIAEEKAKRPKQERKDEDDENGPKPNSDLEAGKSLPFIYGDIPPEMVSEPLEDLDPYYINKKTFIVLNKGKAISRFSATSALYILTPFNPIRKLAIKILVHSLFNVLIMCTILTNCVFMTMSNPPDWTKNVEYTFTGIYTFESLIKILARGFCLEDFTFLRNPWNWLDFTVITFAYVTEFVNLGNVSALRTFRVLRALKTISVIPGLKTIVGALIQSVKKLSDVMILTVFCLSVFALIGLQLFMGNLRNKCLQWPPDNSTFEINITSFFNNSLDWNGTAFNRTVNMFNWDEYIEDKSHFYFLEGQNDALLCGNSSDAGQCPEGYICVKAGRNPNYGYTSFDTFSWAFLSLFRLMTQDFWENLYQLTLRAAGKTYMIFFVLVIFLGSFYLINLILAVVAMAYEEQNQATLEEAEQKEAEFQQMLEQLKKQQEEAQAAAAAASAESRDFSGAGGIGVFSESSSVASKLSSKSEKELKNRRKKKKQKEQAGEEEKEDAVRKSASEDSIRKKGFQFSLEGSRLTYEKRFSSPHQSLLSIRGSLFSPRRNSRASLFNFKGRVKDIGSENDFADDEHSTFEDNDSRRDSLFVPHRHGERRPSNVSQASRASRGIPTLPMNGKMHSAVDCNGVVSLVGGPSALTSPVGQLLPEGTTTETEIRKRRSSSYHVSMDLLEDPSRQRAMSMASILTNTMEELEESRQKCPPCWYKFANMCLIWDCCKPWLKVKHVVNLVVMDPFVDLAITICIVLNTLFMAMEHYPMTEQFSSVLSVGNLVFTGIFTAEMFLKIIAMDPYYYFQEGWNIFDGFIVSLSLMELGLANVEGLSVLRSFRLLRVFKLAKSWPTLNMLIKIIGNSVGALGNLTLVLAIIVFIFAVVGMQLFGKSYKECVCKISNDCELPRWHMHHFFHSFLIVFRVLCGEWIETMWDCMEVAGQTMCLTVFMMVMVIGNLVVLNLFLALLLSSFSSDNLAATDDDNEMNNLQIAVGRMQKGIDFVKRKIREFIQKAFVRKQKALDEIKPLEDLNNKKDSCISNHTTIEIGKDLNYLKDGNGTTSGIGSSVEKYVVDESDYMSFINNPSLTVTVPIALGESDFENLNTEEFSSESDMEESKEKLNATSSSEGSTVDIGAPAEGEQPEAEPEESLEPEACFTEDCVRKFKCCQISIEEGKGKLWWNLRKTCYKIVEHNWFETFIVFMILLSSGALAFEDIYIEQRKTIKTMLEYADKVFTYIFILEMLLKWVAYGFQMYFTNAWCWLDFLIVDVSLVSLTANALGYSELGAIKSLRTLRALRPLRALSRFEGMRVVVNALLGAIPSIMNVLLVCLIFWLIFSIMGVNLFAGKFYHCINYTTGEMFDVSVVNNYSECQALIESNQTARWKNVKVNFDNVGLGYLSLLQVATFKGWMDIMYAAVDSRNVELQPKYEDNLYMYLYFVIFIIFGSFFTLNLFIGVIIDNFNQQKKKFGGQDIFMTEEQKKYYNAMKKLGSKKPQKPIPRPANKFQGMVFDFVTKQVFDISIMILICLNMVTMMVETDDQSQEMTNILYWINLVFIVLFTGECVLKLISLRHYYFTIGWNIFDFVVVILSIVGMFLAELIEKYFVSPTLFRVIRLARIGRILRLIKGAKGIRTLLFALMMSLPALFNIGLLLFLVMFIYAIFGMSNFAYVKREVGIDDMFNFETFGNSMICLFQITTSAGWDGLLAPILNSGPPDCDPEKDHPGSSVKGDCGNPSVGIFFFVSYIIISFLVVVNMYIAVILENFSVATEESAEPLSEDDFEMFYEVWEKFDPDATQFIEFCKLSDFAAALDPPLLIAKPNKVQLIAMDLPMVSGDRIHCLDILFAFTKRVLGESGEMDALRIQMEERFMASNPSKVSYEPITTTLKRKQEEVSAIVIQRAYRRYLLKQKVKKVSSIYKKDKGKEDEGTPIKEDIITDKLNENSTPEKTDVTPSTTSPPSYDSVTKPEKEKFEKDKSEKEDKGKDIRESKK
T1 sequence (P08104 whole entry, looked up, other chains not shown): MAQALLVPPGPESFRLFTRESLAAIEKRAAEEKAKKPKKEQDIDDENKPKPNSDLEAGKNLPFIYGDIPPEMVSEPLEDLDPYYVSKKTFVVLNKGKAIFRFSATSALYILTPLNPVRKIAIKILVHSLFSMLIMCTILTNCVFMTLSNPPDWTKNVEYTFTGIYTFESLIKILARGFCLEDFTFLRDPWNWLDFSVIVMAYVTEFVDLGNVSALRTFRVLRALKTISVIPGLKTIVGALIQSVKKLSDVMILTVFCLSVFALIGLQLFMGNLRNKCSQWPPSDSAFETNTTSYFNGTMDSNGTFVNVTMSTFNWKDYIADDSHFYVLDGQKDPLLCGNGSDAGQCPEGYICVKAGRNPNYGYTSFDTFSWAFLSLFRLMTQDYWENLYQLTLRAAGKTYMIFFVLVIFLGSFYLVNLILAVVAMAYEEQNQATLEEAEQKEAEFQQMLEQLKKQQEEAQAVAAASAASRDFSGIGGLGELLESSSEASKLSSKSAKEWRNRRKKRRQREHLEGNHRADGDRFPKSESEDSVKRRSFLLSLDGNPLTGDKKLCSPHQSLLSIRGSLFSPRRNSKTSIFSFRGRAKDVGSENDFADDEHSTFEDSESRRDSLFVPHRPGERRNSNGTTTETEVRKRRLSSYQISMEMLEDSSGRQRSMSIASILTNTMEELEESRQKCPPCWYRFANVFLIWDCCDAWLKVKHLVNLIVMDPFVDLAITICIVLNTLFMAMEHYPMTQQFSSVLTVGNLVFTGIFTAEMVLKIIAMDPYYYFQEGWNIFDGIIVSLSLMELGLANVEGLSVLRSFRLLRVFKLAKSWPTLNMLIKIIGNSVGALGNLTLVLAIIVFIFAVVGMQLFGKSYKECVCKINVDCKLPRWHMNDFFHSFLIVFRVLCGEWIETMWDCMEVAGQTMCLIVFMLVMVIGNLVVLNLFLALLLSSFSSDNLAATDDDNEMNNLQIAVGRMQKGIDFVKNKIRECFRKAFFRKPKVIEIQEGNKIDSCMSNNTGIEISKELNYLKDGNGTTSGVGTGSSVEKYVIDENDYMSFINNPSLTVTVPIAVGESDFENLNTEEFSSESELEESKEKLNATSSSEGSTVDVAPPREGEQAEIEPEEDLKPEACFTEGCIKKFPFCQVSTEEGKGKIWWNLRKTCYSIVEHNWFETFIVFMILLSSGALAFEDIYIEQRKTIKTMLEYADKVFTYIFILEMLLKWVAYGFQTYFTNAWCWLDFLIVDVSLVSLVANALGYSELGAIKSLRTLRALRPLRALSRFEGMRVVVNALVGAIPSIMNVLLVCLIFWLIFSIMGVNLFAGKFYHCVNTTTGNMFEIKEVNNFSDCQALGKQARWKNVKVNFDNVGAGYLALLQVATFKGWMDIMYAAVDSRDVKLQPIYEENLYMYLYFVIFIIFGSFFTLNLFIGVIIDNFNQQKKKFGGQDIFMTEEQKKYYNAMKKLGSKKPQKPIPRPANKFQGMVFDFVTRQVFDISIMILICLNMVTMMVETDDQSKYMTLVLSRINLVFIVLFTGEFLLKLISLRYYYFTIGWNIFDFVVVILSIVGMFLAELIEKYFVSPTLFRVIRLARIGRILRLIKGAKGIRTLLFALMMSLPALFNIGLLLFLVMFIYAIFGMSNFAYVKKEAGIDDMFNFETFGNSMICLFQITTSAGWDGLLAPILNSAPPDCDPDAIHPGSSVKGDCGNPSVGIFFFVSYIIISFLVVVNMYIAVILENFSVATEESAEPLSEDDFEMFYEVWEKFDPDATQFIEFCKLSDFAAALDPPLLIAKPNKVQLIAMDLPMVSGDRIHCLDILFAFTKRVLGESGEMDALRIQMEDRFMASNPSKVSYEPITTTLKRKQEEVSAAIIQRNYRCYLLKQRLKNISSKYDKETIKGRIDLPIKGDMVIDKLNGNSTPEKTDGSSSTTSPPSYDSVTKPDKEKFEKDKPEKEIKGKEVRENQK

| SMILES | inhibition [1] | ED50 (Mus musculus [2]) | ED50 (Mus musculus [3]) | TD50 at 0.5 h [4] | ED50 (Mus musculus [5]) | inhibition [6] | inhibition [7] | TD50 at 0.25 h [8] |
| --- | --- | --- | --- | --- | --- | --- | --- | --- |
| CCC1(c2ccccc2)OC(=O)NC1=O (racemic) | 44% |  |  |  |  |  |  |  |
| CC[C@]1(c2ccccc2)OC(=O)N(C)C1=O | 49% | 122 mg/kg | 69 mg/kg | 354 mg/kg |  |  |  |  |
| CC(=O)N[C@@H](C(=O)NCc1ccccc1)c1ccccc1 |  |  |  |  | 26 mg/kg |  |  |  |
| O=C1OC2(c3ccccc3)CCCCCN1C2=O (racemic) |  | 66 mg/kg | 45 mg/kg | 147 mg/kg |  | 50% |  |  |
| CC(=O)N[C@H](C(=O)NCc1ccccc1)c1ccccc1 |  |  |  |  | > 300 mg/kg |  |  |  |
| CCC1(c2ccccc2)OC(=O)N(C)C1=O (racemic) | 50% | 124 mg/kg |  |  |  |  |  |  |
| O=C1O[C@@]2(c3ccccc3)CCCCCN1C2=O |  | 45 mg/kg | 50 mg/kg | 84 mg/kg |  |  | 50% |  |
| CC[C@@]1(c2ccccc2)OC(=O)N(C)C1=O | 45% | 188 mg/kg | 64 mg/kg | 395 mg/kg |  |  |  |  |
| CC[C@@]1(c2ccccc2)OC(=O)NC1=O | 36% | 141 mg/kg | 42 mg/kg | 155 mg/kg |  |  |  |  |
| CC[C@]1(c2ccccc2)OC(=O)NC1=O | 46% | 91 mg/kg | 108 mg/kg | 172 mg/kg |  |  |  |  |
| O=C1O[C@]2(c3ccccc3)CCCCCN1C2=O |  | 82 mg/kg | < 400 mg/kg |  |  |  | 50% | 334 mg/kg |

Reference: ChEMBL document CHEMBL1124529, “Sodium channel binding and anticonvulsant activities for the enantiomers of a bicyclic 2,4-oxazolidinedione and monocyclic models” (J Med Chem, 1989)
